Consider 8 compounds from US20220017516A1, “LOX INHIBITORS” (THE INSTITUTE OF CANCER RESEARCH: ROYAL CANCER HOSPITAL, priority 2018, published 2022).

The target of experiment [1] is T1, LOX (Mus musculus, UniProt P28301).
T1 construct: Full length LOX cDNA was then PCR cloned into pEGFP-N1 (Clonetech), or biosensor vector proGFP2—N1; expressed in transfected cells; host or cells: MDCK cells grown as cysts on Matrigel
T1 sequence (P28301 163-411): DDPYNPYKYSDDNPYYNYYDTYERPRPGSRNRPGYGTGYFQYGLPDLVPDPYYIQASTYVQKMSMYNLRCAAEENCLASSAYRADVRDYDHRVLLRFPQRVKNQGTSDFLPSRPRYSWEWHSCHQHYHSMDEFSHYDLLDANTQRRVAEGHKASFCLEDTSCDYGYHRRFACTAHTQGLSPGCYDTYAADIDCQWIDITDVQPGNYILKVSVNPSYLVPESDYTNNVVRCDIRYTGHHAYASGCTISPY
The experiment is described as follows: LOX activity in cysts assay (roGFP2 LOX biosensor in MDCK cysts). In kind it is cell-based. To be noted: for inhibition at 10 µM: read-out: Cyst LOX @ 10 uM (% inhibition). The protocol: All cell lines used in this study were purchased from American Type Culture Collection (ATCC). Mycoplasma contamination was routinely monitored by PCR. Cells used were not found to be Mycoplasma positive. MDCK cell lines were cultured in Dulbecco's Modified Eagle Medium (DMEM) supplemented with 10% fetal bovine serum (FBS) and 1% Penicillin Streptomycin solution (Pen Strep). For GFP constructs transfection in MDCK cells, lipofectamine 3000 was used according to manufactures protocols. Cells were either selected with G418 (Life Technologies) at 5 mg/ml. All cell culture reagents were purchased from Life Technologies.
To produce MDCK cysts, cells were cultured on Matrigel (Corning) with 2% Matrigel supplemented in DMEM with 10% FBS. Cysts were allowed to form for 10 days before subsequent studies.
Mouse LOX cDNA was purchased from OriGene. Full length LOX cDNA was then PCR cloned into pEGFP-N1 (Clonetech), or biosensor vector proGFP2—N1 (Hanson, 2004) using the following primers, […] (forward primer) and […] (reverse primer). For the insertion into pEGFP-N1 or proGFP2—N1, Nhel and Xhol restriction sites were added to forward and reverse primers accordingly. Mutant LOX constructs were made using QuickChange II site-directed mutagenesis kit (Agilent Technologies) following manufacture's protocol using LOX-GFP as template. To generate, roGFP2 versions of LOX mutant constructs, LOX mutant cDNA was transferred from pEGFP-N1 to proGFP2—N1 using Nhel and Xhol.
All photomicrographs were taken with a Leica TCS SP8 X confocal system. For LOX biosensor imaging, live MDCK cysts were used. The oxidised biosensor was excited using a 405 nm laser, while the reduced biosensor was excited with a 488 nm laser. Emission of the biosensor was recorded at 500 nm-530 nm range using sequential scans. Ratio images were generated following a published protocol {Kardash, 2011 #376}. Note, while the published protocol generates YFP/CFP ratio images, we used it to generate Oxidised/Reduced (roGFP2 ratio) ratio images. The roGFP2 ratio at the basal surface of MDCK cysts was used to indicate LOX inhibition. LOX inhibitors were added 30 min prior to imaging.
For clarity, readout for DMSO treated cysts represents 0% inhibition (no inhibition) and readout for BAPN at 1 mM is used as 100% inhibition (full inhibition).

Experiment [2] deals with T2, LOXL3 (Homo sapiens, UniProt P58215).
T2 construct: purchased R&D Systems/Bio-techne
T2 sequence (P58215 26-753): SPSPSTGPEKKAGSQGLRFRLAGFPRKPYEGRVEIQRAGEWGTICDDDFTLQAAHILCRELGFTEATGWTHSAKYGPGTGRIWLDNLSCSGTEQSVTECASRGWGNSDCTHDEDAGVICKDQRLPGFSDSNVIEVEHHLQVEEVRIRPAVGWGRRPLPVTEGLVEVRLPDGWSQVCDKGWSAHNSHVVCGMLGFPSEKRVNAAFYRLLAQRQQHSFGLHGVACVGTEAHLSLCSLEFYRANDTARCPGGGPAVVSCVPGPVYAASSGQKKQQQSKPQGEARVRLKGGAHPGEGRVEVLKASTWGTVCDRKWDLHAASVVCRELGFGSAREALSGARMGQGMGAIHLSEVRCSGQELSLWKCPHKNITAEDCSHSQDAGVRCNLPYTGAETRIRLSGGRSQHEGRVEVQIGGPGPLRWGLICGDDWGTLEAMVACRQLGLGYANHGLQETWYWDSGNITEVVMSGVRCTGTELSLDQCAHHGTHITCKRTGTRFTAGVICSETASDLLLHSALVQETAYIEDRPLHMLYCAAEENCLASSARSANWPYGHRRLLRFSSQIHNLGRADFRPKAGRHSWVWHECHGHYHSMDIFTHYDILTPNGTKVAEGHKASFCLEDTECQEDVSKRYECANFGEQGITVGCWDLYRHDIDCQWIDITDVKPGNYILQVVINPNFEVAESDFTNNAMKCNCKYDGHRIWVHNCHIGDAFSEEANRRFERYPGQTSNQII
Briefly: LOX isoform activity assay (ROS Glo), LOXL3. The format is biochemical. The settings on record: 1 h incubation with enzyme. The protocol:
LOX was extracted from pig skin by previously described methods (Shackleton and Hulmes, 1990). LOXL2 and LOXL3 were obtained from R&D Systems/Bio-techne. The Promega ROS Glo assay kit (G8821) was used to assess enzyme activity. Overall, test compound was added to either 384 well assay plates (Greiner) using a Labcyte Echo™ Acoustic Handler or to 96 well plates for a final assay concentration of 100, 30, 10, 3, 1, 0.3, 0.1, 0.03, 0.01 and 0.003 μM final assay concentration. Enzymes were diluted according to specific pre-determined activity in assay buffer (100 mM CHES, pH 9, 0.05% (w/v) pluronic F-127, 0.5% (w/v) BSA, 1 mM MgCl2, 1 M urea, 100 mM NaCl) and added to the plate. For LOXL2, the mixture was incubated for 20 min, 1 h or 20 h; for LOX and LOXL3, incubation time was 1 h. Cadaverine and H2O2 substrate were then added to each well (final assay concentration 19.56 mM and 25 μM respectively) and the plates were incubated for 1.5 h (for LOX) or 1 h (for LOXL2 and LOXL3) at room temperature. Finally, luciferin detection reagent was added and plates were incubated for 20 min at room temperature, protected from light. Luminescence was measured using a BMG LABTECH PHERAstar FS reader and resulting IC50 values were calculated using GraphPad Prism software.

In experiment [3] the target is T3, LOX (Sus scrofa, UniProt P45845).
T3 construct: LOX was extracted from pig skin by previously described methods; from tissue; host or cells: pig skin
T3 sequence (P45845 1-249): T1 sequence (P28301 163-411) with D20X, T21X, Y22X, N31Y, S80T, N142S, A188N, Q202K, T224S, D231E
The experiment is described as follows: LOX isoform activity assay (ROS Glo), LOX. In kind it is biochemical, pig. The settings on record: 1 h incubation with enzyme. The gist of the method: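 Pig-skin LOX or recombinant LOXL3 preincubated 1 h with compound (100-0.003 μM final) in pH 9 CHES buffer containing 1 M urea. Then 19.56 mM cadaverine plus 25 μM H2O2 added, 1.5 h (LOX) or 1 h (LOXL3) at room temperature. ROS-Glo luminescence; IC50 from curve fit.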

Setting [4] is: LOX, 10 uM, DMSO = 0%, BAPN 1 mM = 100% inhibition, inhibitor added 30 min prior to imaging.

Positions count from the first letter of the chain named. Where two headings read alike, the source gives them in different places.

`CCOc1ccc(N2CC3CN(CCS(=O)(=O)CCN)CC3C2)cc1` (stereo not drawn) [Example 4, 2-((2-(5-(4-ethoxyphenyl)hexahydropyrolo [3,4-c]pyrrol-2(1H)-yl)ethyl)sulfonyl)ethan-1-amine]: in experiment [1] (setting [4]), the inhibition at 10 µM was found to be 100%.
As for `CCOc1ccc(N2C[C@H]3CN(C(=O)CS(=O)(=O)CCN)C[C@@H]2C(C)(C)C3)cc1` [Example 7, 2-((2-aminoethyl)sulfonyl)-1-((1S,5S)-6-(4-ethoxyphenyl)-9,9-dimethyl-3,6-diazabicyclo[3.2.2]nonan-3-yl)ethan-1-one], the inhibition at 10 µM in experiment [1] (LOX) came out at 79%.
Take `CCOc1ccc(N2C[C@@H]3C[C@H]2CN3C(=O)CS(=O)(=O)CCN)cc1` [Example 8, 2-((2-aminoethyl)-sulfonyl)-1-((1S,4S)-5-(4-ethoxyphenyl)-2,5-diazabicyclo-[2.2.1]heptan-2-yl)-ethan-1-one]: the inhibition at 2.5 µM in experiment [1] (LOX, 2.5 uM (stated in cell), DMSO = 0%, BAPN 1 mM = 100% inhibition, read-out: Cyst LOX (% inhibition) @ 2.5 uM) came to 46%. Moreover, the IC50 is 0.37 µM in experiment [1] (MDCK cysts, read-out: Cyst LOX IC50) and 0.55 µM in experiment [2].
For `NCCS(=O)(=O)CC(=O)N1CCN(c2ccccc2)CC1` [Example 13, 2-((2-Aminoethyl)-sulfonyl)-1-(4-phenylpiperazin-1-yl)ethan-1-one], the IC50 came out at 25 µM in experiment [3] and 0.28 µM in experiment [2].
With `CCOc1ccc(N2C[C@H]3CN(c4ccc(S(=O)(=O)CCN)cc4)C[C@@H]2C(C)(C)C3)cc1` [Example 33, 2-((4-((1R,5S)-6-(4-ethoxyphenyl)-9,9-dimethyl-3,6-diazabicyclo [3.2.2]nonan-3-yl)phenyl)sulfonyl)ethan-1-amine], in experiment [1] (setting [4]), the inhibition at 10 µM turned out to be 100%.
As for `CCOc1ccc(N2C[C@H]3CN(C(=O)NCCS(=O)(=O)CCN)C[C@@H]2C(C)(C)C3)cc1` [Example 38, (1S,5S)—N-(2-((2-aminoethyl)sulfonyl)ethyl)-6-(4-ethoxyphenyl)-9,9-dimethyl-3,6-diazabicyclo[3.2.2]nonane-3-carboxamide], the inhibition at 10 µM in experiment [1] (LOX) turned out to be 70%. The same compound yielded a 50% inhibitory concentration (IC50) in experiment [3] of 8.8 µM.
`CCOC(=O)CCC(C(=O)N1C[C@@H]2C[C@H]1CN2c1ccc(OCC)cc1)S(=O)(=O)CCN` (stereo partly drawn) [Example 41, ethyl 4-((2-aminoethyl)sulfonyl)-5-((1S,4S)-5-(4-ethoxyphenyl)-2,5-diazabicyclo[2.2.1]heptan-2-yl)-5-oxopentanoate] showed a 50% inhibitory concentration (IC50) in experiment [3] of 41 µM.
Take `CCOc1ccc(N2C[C@@H]3C[C@H]2CN3C(=O)C2(S(=O)(=O)CCN)CC2)cc1` [Example 42, (1-((2-Aminoethyl)sulfonyl)cyclopropyl)((1S,4S)-5-(4-ethoxyphenyl)-2,5-diazabicyclo[2.2.1]heptan-2-yl)methanone]: in experiment [3], the IC50 is > 100 µM.

Usually inhibition stands for the drop in the measured response relative to a control, in per cent. For orientation: IC50 means the concentration needed to halve the response being measured.
